Where two headings read alike, the source gives them in different places.
Key:
[1] = system: S. aureus strains; format: cell-based
[2] = system: S. aureus strains; conditions: cited from earlier work
[3] = system: S. epidermidis strains; design: method as in earlier work; conditions: ref [5], cited from earlier work
[4] = system: S. epidermidis strains; format: cell-based
[5] = Precipitation of reserpine in the presence of 5a4; format: physicochemical; conditions: text printed in Figure 7C
[6] = target: NorA efflux pump (Staphylococcus aureus, UniProt P0A0J7); format: cell-based, S. aureus; conditions: 5a4 1 µg mL^−1
Chain of NorA efflux pump (P0A0J7 whole entry): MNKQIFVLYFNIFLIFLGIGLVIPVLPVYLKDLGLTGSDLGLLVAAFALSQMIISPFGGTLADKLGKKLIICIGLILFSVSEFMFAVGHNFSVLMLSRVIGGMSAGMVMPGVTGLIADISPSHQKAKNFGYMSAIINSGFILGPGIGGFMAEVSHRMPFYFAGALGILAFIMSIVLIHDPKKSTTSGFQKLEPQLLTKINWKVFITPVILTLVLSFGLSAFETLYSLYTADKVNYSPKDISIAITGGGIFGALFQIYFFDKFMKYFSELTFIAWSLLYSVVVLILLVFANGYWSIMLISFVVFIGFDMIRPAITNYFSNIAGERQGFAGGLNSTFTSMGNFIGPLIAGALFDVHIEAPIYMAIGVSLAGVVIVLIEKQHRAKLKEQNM

**Q.** What does the source list for `COc1c(N2C[C@@H]3CCCN[C@@H]3C2)c(F)cc2c(=O)c(C(=O)O)cn(C3CC3)c12` [MXF, Moxifloxacin]?
**A.** Susceptibility profile [1]: R and S; Susceptibility profile ([1]; […]): S; Susceptibility profile ([1]; strain BIOS-H1): S; Susceptibility profile ([1]; strain BIOS-H2): S; Susceptibility profile ([1]; strain BIOS-H3): S; Susceptibility profile ([1]; strain BIOS-H5): S; Susceptibility profile ([1]; strain BIOS-H6): S; Susceptibility profile ([1]; strain BIOS-H12): S; Susceptibility profile ([1]; strain BIOS-H13): S; Susceptibility profile ([1]; strain BIOS-H17): S; Susceptibility profile ([1]; strain BIOS-H20): S; Susceptibility profile ([1]; strain BIOS-H21): S; Susceptibility profile ([1]; strain BIOS-H22): S; Susceptibility profile ([1]; strain BIOS-H25): S; Susceptibility profile ([1]; strain BIOS-H28): S; Susceptibility profile ([1]; strain BIOS-H29): S; Susceptibility profile ([1]; strain BIOS-H30): S; Susceptibility profile ([1]; strain BIOS-H32): S; Susceptibility profile ([1]; strain BIOS-V21): S; Susceptibility profile ([1]; strain BIOS-V31): S; Susceptibility profile ([1]; strain BIOS-V60): S; Susceptibility profile ([1]; strain BIOS-V61): S; Susceptibility profile ([1]; strain BIOS-V62): S; Susceptibility profile ([1]; strain BIOS-V74): S; Susceptibility profile ([1]; strain BIOS-V75): S; Susceptibility profile ([1]; strain BIOS-V85): S; Susceptibility profile ([1]; strain BIOS-V118): S; Susceptibility profile ([1]; strain BIOS-V128): S; Susceptibility profile ([1]; strain BIOS-V147): S; Susceptibility profile ([1]; strain BIOS-V151): S; Susceptibility profile ([1]; strain BIOS-V156): S; Susceptibility profile ([1]; strain BIOS-V157): S; Susceptibility profile ([1]; strain BIOS-V158): S; Susceptibility profile ([1]; strain BIOS-V168): S; Susceptibility profile ([1]; strain BIOS-V172): S; Susceptibility profile ([1]; strain BIOS-V178): S; Susceptibility profile ([1]; strain BIOS-V203): S; Susceptibility profile ([1]; strain BIOS-V245): S; Susceptibility profile ([1]; strain BIOS-V250): S; Susceptibility profile ([1]; strain BIOS-V257): S; Susceptibility profile ([1]; strain BIOS-V279): S; Susceptibility profile ([1]; strain BIOS-V295): S; Susceptibility profile ([2]; strain ATCC25923, ref [4]): S; Susceptibility profile ([2]; strain SA-1199, ref [2]): S; Susceptibility profile ([2]; strain SA-1199B, ref [2]): S; Susceptibility profile ([2]; strain SA-K1712, ref [3]): S; Susceptibility profile ([2]; strain SA-K1748, ref [3]): R; Susceptibility profile ([2]; strain SA-K1758, ref [2]): S; Susceptibility profile ([2]; strain SA-K2068, ref [3]): R; Susceptibility profile ([3]; strain ATCC12228): S; Susceptibility profile ([3]; strain ATCC12228_EtBr): R; Susceptibility profile [4]: R; Susceptibility profile ([4]; strain BIOS-V24): S; Susceptibility profile ([4]; strain BIOS-V282): S

**Q.** Which “Precipitation of reserpine (concentration)” value [5] does the source give for `COC(=O)[C@H]1[C@H]2C[C@@H]3c4[nH]c5cc(OC)ccc5c4CCN3C[C@H]2C[C@@H](OC(=O)c2cc(OC)c(OC)c(OC)c2)[C@@H]1OC` [reserpine] here?
**A.** The value was 20 to 30 µg/mL.

**Q.** What about the “change of 5a4 fluorescent intensity with reserpine” value ([6]; SA‐1199B) of the same compound?
**A.** Its value is “drastic increase”.

**Q.** What about the “reserpine concentration giving significant increase (p < 0.01) in 5a4 fluorescence intensity versus untreated cells” value ([6]; SA‐1199 and SA‐1199B) of the same compound?
**A.** The value was no less than 10 µg/mL.

**Q.** What about the “change of 5a4 fluorescent intensity with reserpine” value ([6]; SA‐K1758 (norA‐deficient)) of the same compound?
**A.** Its value is “no discernible change”.
